Publication PMC9488896, “Hydroxamic Acid-Modified Peptide Library Provides Insights into the Molecular Basis for the Substrate Selectivity of HDAC Corepressor Complexes” (ACS Chemical Biology, 2022)
Where two headings read alike, the source gives them in different places. Residues, ends and D or L forms follow the SMILES beside them.

Legend:
HMR complex = target: T1, HMR complex (Homo sapiens, UniProt Q09028+Q13330+Q13547); experiment: Fluorescence polarization binding assay; details: 10 nM FTU-labeled peptide, increasing HMR, 30 min rt; one-site binding fit; technical replicates N = 2; read-out: KD of Fluorescein-labelled peptides against HMR
T1 construct: made in house; host or cells: HEK293F
Procedure: We aimed first to validate the results of the activity assay with the hydroxamic acid-containing peptides in terms of binding kinetics. To this end, we designed and synthesized fluorescein-labeled analogues (FTU) of the key peptides identified from the inhibition assay: FTU-H3(6−12)K9Hd 17, FTU-H3(23–29)K27Hd 18, FTU-H4(8−14)K12Hd 19, and FTU-H4(12−18)K16Hd 20. […] These peptides were then tested in an FP assay to measure their binding affinity for the HMR complex (Figure 2D).
The fluorescence polarization assay was performed using 96-well black plates (Corning). FTU (10 nM)-labeled peptides (peptides 17–20) were incubated with increasing concentrations of HMR for 30 min at rt. The plate was shaken before being read on a Victor X5 Plate reader (Perkin Elmer). […] values were calculated using the nonlinear regression one-site binding equation Y = Bmax × X/(KD + X) using Graphpad Prism 9.

[1] = target: T2, HDAC1/MTA1(aa: 162–546)/RBBP4 core NuRD complex (HMR) (Homo sapiens, UniProt Q09028+Q13330+Q13547); experiment: Boc-Lys HDAC inhibition assay; type: biochemical; details: 50 nM complex, 100 μM Boc-(Ac)Lys-AMC, 37 °C 30 min, technical replicates N = 2
T2 construct: made in house; host or cells: HEK293F
Procedure: (§1) Inhibition assays with various peptide inhibitors were performed using a fluorescence-based assay. The inhibitor peptides were initially dissolved in 5% dimethyl sulfoxide (DMSO) at a stock concentration of 25 mM before being further diluted in the HDAC assay buffer (50 mM Tris/HCl, pH 7.5, 150 mM NaCl). Serial dilutions (1:3) of the inhibitor were prepared, starting at a concentration of 500 μM. HDAC complexes were diluted to a final concentration of 50 nM and incubated with the inhibitor for 20 min at rt. The Boc-(Ac)Lys-AMC substrate was added at a final concentration of 100 μM The final volume of the reaction was 50 μL. The reaction was incubated at 37 °C, 150 rpm, for 30 min, before a developer (50 mM Tris, pH 7.5, 100 mM NaCl, 10 mg/mL trypsin) was added. The reaction was incubated with the developer for 10 min before being measured (PerkinElmer, 2030 multilabel reader, VICTOR X5, excitation 335 nm, emission 460 nm). The absorbance of the buffer as the blank control was subtracted from the HDAC activity, and IC50 calculations were performed using the nonlinear regression log(inhibitor) vs response equation Y = bottom + (top – bottom)/(1+10^(X–Log IC50)) in Graphpad Prism 9.

SMRT complex (HDAC3) = target: T3, SMRT complex (HDAC3) (Homo sapiens, UniProt O15379); experiment: Boc-Lys HDAC inhibition assay; type: biochemical; details: HDAC complexes tables; 50 nM complex, 100 μM Boc-(Ac)Lys-AMC, 37 °C 30 min; technical replicates N = 2
T3 construct: made in house; host or cells: HEK293F
Source text: (§2) Finally, we directed our attention toward assessing how the results from the experiments with HMR would be common to the other known class I HDAC corepressor complexes. RERE, MIER1, CoREST, HMR, MiDAC, Sin3A, and SMRT were expressed and purified, and the concentrations were normalized based on the concentration of HDAC1 or HDAC3 (Figure 4A). We determined the potency of H3(23–29)K27Hd 12 and H4(12–18)K16Hd 16 against RERE, MIER1, CoREST, NuRD, MiDAC, Sin3A, and SMRT (Figure 4B). In addition, we repeated the H3(23–29)K27Hd alanine scan experiment for each of these complexes to assess whether or not the importance of Lys23 for maintaining potency against HMR was replicated across the other complexes (Figure 4C).
as §1

MiDAC complex = target: T4, MiDAC complex (Homo sapiens, UniProt Q13547+Q6PJG2+Q9H147); experiment: Boc-Lys HDAC inhibition assay; type: biochemical; details: HDAC complexes tables; 50 nM complex, 100 μM Boc-(Ac)Lys-AMC, 37 °C 30 min; technical replicates N = 2
T4 construct: made in house; host or cells: HEK293F
Source text: as §2, §1

Sin3A complex = target: T5, Sin3A complex (Homo sapiens, UniProt Q13547); experiment: Boc-Lys HDAC inhibition assay; type: biochemical; details: HDAC complexes tables; 50 nM complex, 100 μM Boc-(Ac)Lys-AMC, 37 °C 30 min; technical replicates N = 2
T5 construct: made in house; host or cells: HEK293F
Source text: as §2, §1

RERE complex = target: T6, RERE complex (Homo sapiens, UniProt Q13547+Q9P2R6); experiment: Boc-Lys HDAC inhibition assay; type: biochemical; details: HDAC complexes tables; 50 nM complex, 100 μM Boc-(Ac)Lys-AMC, 37 °C 30 min; technical replicates N = 2
T6 construct: made in house; host or cells: HEK293F
Source text: as §2, §1

MIER1 complex = target: T7, MIER1 complex (Homo sapiens, UniProt Q13547+Q8N108); experiment: Boc-Lys HDAC inhibition assay; type: biochemical; details: HDAC complexes tables; 50 nM complex, 100 μM Boc-(Ac)Lys-AMC, 37 °C 30 min; technical replicates N = 2
T7 construct: made in house; host or cells: HEK293F
Source text: as §2, §1

CoREST complex = target: T8, CoREST complex (Homo sapiens, UniProt Q13547+Q9UKL0); experiment: Boc-Lys HDAC inhibition assay; type: biochemical; details: HDAC complexes tables; 50 nM complex, 100 μM Boc-(Ac)Lys-AMC, 37 °C 30 min; technical replicates N = 2
T8 construct: made in house; host or cells: HEK293F
Source text: as §2, §1

[2] = alanine scan / H4K12Hd experiments, 20 min preincubation rt, read-out: IC50 of HMR against H3 K27Hd, H4 K16Hd and H4K12Hd peptides

T2 sequence (Q13547 whole entry, species assumed): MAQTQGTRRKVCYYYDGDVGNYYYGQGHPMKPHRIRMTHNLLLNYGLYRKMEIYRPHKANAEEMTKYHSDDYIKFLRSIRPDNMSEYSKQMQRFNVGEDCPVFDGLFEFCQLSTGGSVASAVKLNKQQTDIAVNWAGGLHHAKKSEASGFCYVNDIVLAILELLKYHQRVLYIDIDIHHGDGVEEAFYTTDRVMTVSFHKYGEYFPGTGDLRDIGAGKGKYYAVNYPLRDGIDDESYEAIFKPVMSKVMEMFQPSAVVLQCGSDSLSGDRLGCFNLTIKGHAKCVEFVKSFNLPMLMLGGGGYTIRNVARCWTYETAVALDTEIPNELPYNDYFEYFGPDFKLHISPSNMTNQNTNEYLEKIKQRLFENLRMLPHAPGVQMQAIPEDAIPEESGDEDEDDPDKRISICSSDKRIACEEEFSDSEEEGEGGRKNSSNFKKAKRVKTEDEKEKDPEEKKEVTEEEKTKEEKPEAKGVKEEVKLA
T2 sequence (Q13330 162-546 partner limits assumed, species assumed): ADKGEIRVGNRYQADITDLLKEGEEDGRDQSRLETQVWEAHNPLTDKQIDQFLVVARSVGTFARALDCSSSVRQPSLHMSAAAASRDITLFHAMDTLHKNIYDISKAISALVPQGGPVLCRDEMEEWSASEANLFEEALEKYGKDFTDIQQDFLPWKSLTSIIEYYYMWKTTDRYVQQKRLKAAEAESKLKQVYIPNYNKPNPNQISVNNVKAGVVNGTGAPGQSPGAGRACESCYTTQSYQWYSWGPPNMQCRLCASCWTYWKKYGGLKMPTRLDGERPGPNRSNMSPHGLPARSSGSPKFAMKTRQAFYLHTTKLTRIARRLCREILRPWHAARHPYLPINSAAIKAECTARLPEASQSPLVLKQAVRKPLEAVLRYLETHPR
T2 sequence (Q09028 whole entry partner, species assumed): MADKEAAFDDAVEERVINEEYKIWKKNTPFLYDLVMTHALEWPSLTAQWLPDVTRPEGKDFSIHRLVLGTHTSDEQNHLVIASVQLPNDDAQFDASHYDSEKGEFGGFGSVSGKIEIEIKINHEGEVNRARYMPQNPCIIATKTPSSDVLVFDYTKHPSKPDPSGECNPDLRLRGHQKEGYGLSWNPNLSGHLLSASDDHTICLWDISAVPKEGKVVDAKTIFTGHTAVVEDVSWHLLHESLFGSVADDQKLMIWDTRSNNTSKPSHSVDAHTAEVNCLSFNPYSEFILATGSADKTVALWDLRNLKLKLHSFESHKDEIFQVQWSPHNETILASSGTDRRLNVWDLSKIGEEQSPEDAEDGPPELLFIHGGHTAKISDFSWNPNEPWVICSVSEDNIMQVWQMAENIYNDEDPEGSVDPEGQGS
T3 sequence (O15379 whole entry, species assumed, one chain of several): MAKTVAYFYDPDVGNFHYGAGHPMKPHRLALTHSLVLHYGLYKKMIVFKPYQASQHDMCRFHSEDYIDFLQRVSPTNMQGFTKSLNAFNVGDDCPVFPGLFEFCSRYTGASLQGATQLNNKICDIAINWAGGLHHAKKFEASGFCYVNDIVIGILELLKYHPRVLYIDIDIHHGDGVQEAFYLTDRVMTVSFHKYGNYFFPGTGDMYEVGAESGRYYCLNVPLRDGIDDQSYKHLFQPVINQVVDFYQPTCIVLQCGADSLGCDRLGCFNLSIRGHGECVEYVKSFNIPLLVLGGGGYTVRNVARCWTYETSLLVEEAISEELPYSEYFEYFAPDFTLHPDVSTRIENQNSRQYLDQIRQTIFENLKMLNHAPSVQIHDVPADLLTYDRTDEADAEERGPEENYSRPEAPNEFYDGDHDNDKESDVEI
T7 sequence (Q13547 whole entry): as the sequence (Q13547 whole entry, species assumed) above
T7 sequence (Q8N108 whole entry partner): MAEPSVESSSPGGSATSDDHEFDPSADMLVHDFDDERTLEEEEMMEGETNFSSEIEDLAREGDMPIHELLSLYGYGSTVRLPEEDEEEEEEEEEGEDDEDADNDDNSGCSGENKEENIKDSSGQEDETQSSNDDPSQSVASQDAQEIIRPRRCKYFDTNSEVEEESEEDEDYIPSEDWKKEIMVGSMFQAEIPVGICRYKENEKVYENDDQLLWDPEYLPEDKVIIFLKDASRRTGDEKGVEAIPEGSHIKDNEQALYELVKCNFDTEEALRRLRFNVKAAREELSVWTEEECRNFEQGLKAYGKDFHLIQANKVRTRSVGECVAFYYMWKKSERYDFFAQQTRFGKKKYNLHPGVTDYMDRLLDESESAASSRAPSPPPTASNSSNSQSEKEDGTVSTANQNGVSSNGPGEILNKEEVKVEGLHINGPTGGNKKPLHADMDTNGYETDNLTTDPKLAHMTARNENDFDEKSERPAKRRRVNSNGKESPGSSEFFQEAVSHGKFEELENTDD
T1 sequence (Q13547 whole entry, species assumed): as the sequence (Q13547 whole entry, species assumed) above
T1 sequence (Q13330 162-546 partner limits assumed, species assumed): as the sequence (Q13330 162-546 partner limits assumed, species assumed) above
T1 sequence (Q09028 whole entry partner, species assumed): as the sequence (Q09028 whole entry partner, species assumed) above
T8 sequence (Q13547 whole entry, other chains not shown): as the sequence (Q13547 whole entry, species assumed) above
T8 sequence (Q9UKL0 86-485 partner limits assumed, other chains not shown): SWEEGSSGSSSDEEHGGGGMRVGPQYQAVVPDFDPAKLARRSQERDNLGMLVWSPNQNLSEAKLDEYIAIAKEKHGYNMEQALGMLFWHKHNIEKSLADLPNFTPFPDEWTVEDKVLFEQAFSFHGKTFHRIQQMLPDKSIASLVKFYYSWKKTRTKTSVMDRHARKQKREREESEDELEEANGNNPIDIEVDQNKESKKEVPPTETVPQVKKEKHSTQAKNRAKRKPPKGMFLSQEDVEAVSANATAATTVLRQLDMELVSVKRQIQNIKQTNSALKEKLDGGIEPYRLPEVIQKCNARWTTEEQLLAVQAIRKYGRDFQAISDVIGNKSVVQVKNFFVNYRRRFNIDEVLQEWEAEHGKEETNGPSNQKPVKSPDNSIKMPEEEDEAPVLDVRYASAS

Kd (HMR complex) [nM]	IC50 ([1]; HDAC complexes tables, read-out: IC50, HMR (NuRD)) [nM]	IC50 [1, 2] [nM]	IC50 ([1]; inhibitor library experiment, 20 min preincubation rt, fluorescence, read-out: IC50 of HMR against histone peptide library) [nM]	IC50 (SMRT complex (HDAC3)) [nM]	IC50 (MiDAC complex) [nM]	IC50 (Sin3A complex) [nM]	IC50 (RERE complex) [nM]	IC50 (MIER1 complex) [nM]	IC50 (CoREST complex) [nM]	SMILES
60	50	133	134	128	151	145	209	106	–	CC(=O)N[C@@H](CCCCN)C(=O)N[C@@H](C)C(=O)N[C@@H](C)C(=O)N[C@@H](CCCNC(=N)N)C(=O)N[C@@H](CCCCCC(=O)NO)C(=O)N[C@@H](CO)C(=O)N[C@@H](C)C(N)=O [compound 12, H3(23–29)K27Hd] (HELM PEPTIDE1{[ac].K.A.A.R.[O=C([C@H](CCCCCC(=O)[*:3])N[*:1])[*:2]].S.A.[am]}|CHEM1{[ON[*:1]]}$PEPTIDE1,CHEM1,6:R3-1:R1$$$V2.0)
–	–	308	–	379	480	272	408	342	234	CC(=O)N[C@@H](CCCCN)C(=O)N[C@@H](C)C(=O)N[C@@H](C)C(=O)N[C@@H](CCCNC(=N)N)C(=O)N[C@@H](CCCCCC(=O)NO)C(=O)N[C@@H](C)C(=O)N[C@@H](C)C(N)=O [compound 23, H3 (23-29) K27Hd S28A] (HELM PEPTIDE1{[ac].K.A.A.R.[O=C([C@H](CCCCCC(=O)[*:3])N[*:1])[*:2]].A.A.[am]}|CHEM1{[ON[*:1]]}$PEPTIDE1,CHEM1,6:R3-1:R1$$$V2.0)
288	–	–	–	–	–	–	–	–	–	CC(=O)N[C@@H](CCCCN)C(=O)NCC(=O)N[C@@H](CC(C)C)C(=O)NCC(=O)N[C@@H](CCCCCC(=O)NO)C(=O)NCC(=O)NCC(N)=O [compound 27, H4(8–14)K12Hd] (HELM PEPTIDE1{[ac].K.G.L.G.[O=C([C@H](CCCCCC(=O)[*:3])N[*:1])[*:2]].G.G.[am]}|CHEM1{[ON[*:1]]}$PEPTIDE1,CHEM1,6:R3-1:R1$$$V2.0)
